The values below are quoted from earlier work in patent US6689302B2, “Method of making an antimicrobial tympanostomy tube” (Medtronic Xomed, Inc., priority 1993, dated 2004).

This series deals with postoperative otorrhea. The settings on record: Baker and Chole trial; ophthalmic solution used as otic drops.

For Gentamicin, the incidence of infection entry is “significantly reduced”.
